# Values quoted from earlier work as cited in publication PMC8136953 (Veterinary Medicine and Science, 2020).
# Set-up: method as in Park et al., 2006
# Details: ref Park et al., 2006; cited from earlier work
smiles,measurement,value
"CS(=O)(=O)c1ccc([C@@H](O)[C@H](N)CF)cc1 [FLO amine, florfenicol amine]",Antibacterial activity,virtually lacks antibacterial activity
